Experimental data reported in EP0579733B1, “THIAZOLIDINEDIONE DERIVATIVES, PRODUCTION AND USE THEREOF” (priority 1991, dated 1992).

What was measured:
KKA^y-mice = experiment: Hypoglycemic and hypolipidemic activities in mice; format: in vivo; conditions: 0.005% by weight in chow diet, given freely for 4 days, KKA^y-mice (male, 9 to 10 weeks old); for Hypoglycemic activity (%): % reduction of blood sugar level from control groups, glucose oxidase method; for Hypolipidemic activity (%): % reduction of plasma lipid level from control groups, Kit Cleantech TG-S
Experimental: Test compounds were mixed with laboratory chow diet (CE-2, Clea Japan Inc., Tokyo, Japan) in a proportion of 0.005% by weight. The dietary admixture was given freely to KKA^y-mice (male, 9 to 10 weeks old) for 4 days. During the period, water was given freely. Blood was collected from the orbitral venous plexus. The blood sugar level was determined according to glucose oxidase method. The plasma lipid level was enzymatically determined by using Kit Cleantech TG-S (Iatron, Tokyo, Japan). Values represent % reduction from control groups.

mice = experiment: Toxicity after oral administration to mice (lethality); format: in vivo; conditions: orally administered to mice in a dose of 300 mg/kg
Source text: The compound (I), the pharmacologically acceptable salt thereof, or the pure stereoisomeric form thereof has hypoglycemic and hypolipidemic activities. Further, the compound (I), the pharmacologically acceptable salt thereof or the pure stereoisomeric form thereof has low toxicity. […] Therefore, the compound (I), its pharmacologically acceptable salt or pure stereoisomeric form can be used for treatment of diabetes of mammals including man as it is or by combining with a known pharmacologically acceptable carrier, excipient, filler and the like.

CC(=O)c1ccc(CCOc2ccc(CC3SC(=O)NC3=O)cc2)nc1 (stereo not drawn) [Example 2, 5-[4-[2-(5-acetyl-2-pyridyl)ethoxy]benzyl]-2,4-thiazolidinedione]
Hypoglycemic activity (%) (KKA^y-mice): 56%
Hypolipidemic activity (%) (KKA^y-mice): 43%
lethality (mice): no lethal case was observed

CC(O)c1ccc(CCOc2ccc(CC3SC(=O)NC3=O)cc2)nc1 (stereo not drawn) [Example 1, 5-[4-[2-[5-(l-hydroxyethyl)-2-pyridyl]ethoxy]benzyl]-2,4-thiazolidinedione]
Hypoglycemic activity (%) (KKA^y-mice): 46%
Hypolipidemic activity (%) (KKA^y-mice): 5%
lethality (mice): no lethal case was observed
